# Assay results as given in the OligoGym collection.
# Oligonucleotides are written 5' to 3', each unit as a sugar letter and its base; * is a phosphorothioate linkage, no mark a phosphodiester; rarer units and linkages stand in square brackets, end groups in braces. Plain capitals give the bases only. d = 2'-deoxy (DNA); r = 2'-OH (RNA)
# Target: UBE2V1
# Assay: reporter assay of Huesken 2005
# Details: siRNA
# Note: test concentration or dose not given here.
row,Substance,normalised inhibition (eCFP-eYFP dual reporter) [%]
1,sense rCrArArUrUrUrCrCrGrArCrUrGrUrUrGrGrArAdTdT / antisense rUrUrCrCrArArCrArGrUrCrGrGrArArArUrUrGdCdG,95.3
2,sense rCrArGrArArUrUrCrArUrArUrArGrCrArUrCrAdTdT / antisense rUrGrArUrGrCrUrArUrArUrGrArArUrUrCrUrGdCdC,90
3,sense rCrArGrUrGrCrUrArGrCrArArArArUrGrGrCrAdTdT / antisense rUrGrCrCrArUrUrUrUrGrCrUrArGrCrArCrUrGdAdT,87.5
4,sense rCrArUrArUrArGrCrArUrCrArArArGrUrUrGrUdTdT / antisense rArCrArArCrUrUrUrGrArUrGrCrUrArUrArUrGdAdA,77.7
5,sense rCrCrCrUrCrGrCrArArUrUrUrCrCrGrArCrUrGdTdT / antisense rCrArGrUrCrGrGrArArArUrUrGrCrGrArGrGrGdAdC,84.5
6,sense rCrCrUrArArUrGrArUrGrUrCrUrArArArGrArAdTdT / antisense rUrUrCrUrUrUrArGrArCrArUrCrArUrUrArGrGdCdG,95.1
7,sense rCrCrUrCrArGrCrCrGrCrCrCrGrArArGrGrArCdTdT / antisense rGrUrCrCrUrUrCrGrGrGrCrGrGrCrUrGrArGrGdGdA,55.2
8,sense rCrCrUrCrCrArArGrArArCrArArUrUrUrArUrGdTdT / antisense rCrArUrArArArUrUrGrUrUrCrUrUrGrGrArGrGdCdC,63.1
9,sense rCrCrUrUrUrGrUrArArGrArUrUrUrGrUrArArCdTdT / antisense rGrUrUrArCrArArArUrCrUrUrArCrArArArGrGdGdG,63.8
10,sense rCrGrArArUrArUrArCrArGrCrCrUrUrArArArAdTdT / antisense rUrUrUrUrArArGrGrCrUrGrUrArUrArUrUrCrGdGdT,89.4
11,sense rCrUrArGrArArArArUrUrUrCrArCrUrGrCrArAdTdT / antisense rUrUrGrCrArGrUrGrArArArUrUrUrUrCrUrArGdGdT,96
12,sense rCrUrArGrArArGrArUrGrArCrGrArArGrArCrAdTdT / antisense rUrGrUrCrUrUrCrGrUrCrArUrCrUrUrCrUrArGdAdC,88.8
13,sense rCrUrUrGrArArCrCrUrArGrArArArArUrUrUrCdTdT / antisense rGrArArArUrUrUrUrCrUrArGrGrUrUrCrArArGdTdC,53.5
14,sense rGrArArArArUrUrUrCrArCrUrGrCrArArArGrGdTdT / antisense rCrCrUrUrUrGrCrArGrUrGrArArArUrUrUrUrCdTdA,83.7
15,sense rGrArArGrArArCrUrCrGrArArGrArArGrGrCrCdTdT / antisense rGrGrCrCrUrUrCrUrUrCrGrArGrUrUrCrUrUrCdCdA,53.8
16,sense rGrArArGrArUrGrArCrGrArArGrArCrArUrGrAdTdT / antisense rUrCrArUrGrUrCrUrUrCrGrUrCrArUrCrUrUrCdTdA,95
17,sense rGrArGrCrCrArUrArUrCrArGrUrGrCrUrArGrCdTdT / antisense rGrCrUrArGrCrArCrUrGrArUrArUrGrGrCrUrCdTdT,90.9
18,sense rGrCrArArGrArGrCrUrUrCrGrGrCrGrCrCrUrAdTdT / antisense rUrArGrGrCrGrCrCrGrArArGrCrUrCrUrUrGrCdAdG,82.6
19,sense rGrCrArGrArArUrUrCrArUrArUrArGrCrArUrCdTdT / antisense rGrArUrGrCrUrArUrArUrGrArArUrUrCrUrGrCdCdA,82
20,sense rGrCrCrArUrArUrCrArGrUrGrCrUrArGrCrArAdTdT / antisense rUrUrGrCrUrArGrCrArCrUrGrArUrArUrGrGrCdTdC,92.1
21,sense rGrCrCrUrArArUrGrArUrGrUrCrUrArArArGrAdTdT / antisense rUrCrUrUrUrArGrArCrArUrCrArUrUrArGrGrCdGdC,94.5
22,sense rGrCrCrUrCrCrArArGrArArCrArArUrUrUrArUdTdT / antisense rArUrArArArUrUrGrUrUrCrUrUrGrGrArGrGrCdCdC,76.5
23,sense rGrGrArGrUrArArArArGrUrCrCrCrUrCrGrCrAdTdT / antisense rUrGrCrGrArGrGrGrArCrUrUrUrUrArCrUrCrCdTdT,88.7
24,sense rGrGrArUrGrArUrArArUrUrGrGrGrCrCrUrCrCdTdT / antisense rGrGrArGrGrCrCrCrArArUrUrArUrCrArUrCrCdCdT,70.5
25,sense rGrGrGrUrCrUrArGrArArGrArUrGrArCrGrArAdTdT / antisense rUrUrCrGrUrCrArUrCrUrUrCrUrArGrArCrCrCdCdA,96.3
26,sense rGrGrUrGrGrArCrCrCrArArGrArGrCrCrArUrAdTdT / antisense rUrArUrGrGrCrUrCrUrUrGrGrGrUrCrCrArCrCdAdC,84.1
